Measured values as given in paper PMC6658769, “First-Time-in-Human Study and Prediction of Early Bactericidal Activity for GSK3036656, a Potent Leucyl-tRNA Synthetase Inhibitor for Tuberculosis Treatment” (Antimicrobial Agents and Chemotherapy, 2019).

Assays:
[1] = Nonclinical toxicity studies (NOAEL exposure); format: in vivo; conditions: oral
Description: The principal findings observed in nonclinical toxicity studies following oral administration of GSK3036656 were cardiovascular and hematopoietic, with some minor changes in the liver, kidney, and thymus. The hematopoietic, kidney, liver, and thymus effects are considered either nonadverse or monitorable in the clinic. The structural cardiovascular changes that occurred in a single species at high doses were nonmonitorable but occurred at plasma concentrations where heart rate (HR) and blood pressure (BP) changes are recorded. Specific cardiovascular safety endpoints were included in the first-time-in-human (FTIH) study, including vital sign (HR and BP) stopping criteria.

P-glycoprotein (P-gp) = P-glycoprotein (P-gp) (Homo sapiens, UniProt P08183); assay: P-gp substrate assessment; format: in vitro ADME; conditions: not told
Chain of P-glycoprotein (P-gp) (P08183 whole entry): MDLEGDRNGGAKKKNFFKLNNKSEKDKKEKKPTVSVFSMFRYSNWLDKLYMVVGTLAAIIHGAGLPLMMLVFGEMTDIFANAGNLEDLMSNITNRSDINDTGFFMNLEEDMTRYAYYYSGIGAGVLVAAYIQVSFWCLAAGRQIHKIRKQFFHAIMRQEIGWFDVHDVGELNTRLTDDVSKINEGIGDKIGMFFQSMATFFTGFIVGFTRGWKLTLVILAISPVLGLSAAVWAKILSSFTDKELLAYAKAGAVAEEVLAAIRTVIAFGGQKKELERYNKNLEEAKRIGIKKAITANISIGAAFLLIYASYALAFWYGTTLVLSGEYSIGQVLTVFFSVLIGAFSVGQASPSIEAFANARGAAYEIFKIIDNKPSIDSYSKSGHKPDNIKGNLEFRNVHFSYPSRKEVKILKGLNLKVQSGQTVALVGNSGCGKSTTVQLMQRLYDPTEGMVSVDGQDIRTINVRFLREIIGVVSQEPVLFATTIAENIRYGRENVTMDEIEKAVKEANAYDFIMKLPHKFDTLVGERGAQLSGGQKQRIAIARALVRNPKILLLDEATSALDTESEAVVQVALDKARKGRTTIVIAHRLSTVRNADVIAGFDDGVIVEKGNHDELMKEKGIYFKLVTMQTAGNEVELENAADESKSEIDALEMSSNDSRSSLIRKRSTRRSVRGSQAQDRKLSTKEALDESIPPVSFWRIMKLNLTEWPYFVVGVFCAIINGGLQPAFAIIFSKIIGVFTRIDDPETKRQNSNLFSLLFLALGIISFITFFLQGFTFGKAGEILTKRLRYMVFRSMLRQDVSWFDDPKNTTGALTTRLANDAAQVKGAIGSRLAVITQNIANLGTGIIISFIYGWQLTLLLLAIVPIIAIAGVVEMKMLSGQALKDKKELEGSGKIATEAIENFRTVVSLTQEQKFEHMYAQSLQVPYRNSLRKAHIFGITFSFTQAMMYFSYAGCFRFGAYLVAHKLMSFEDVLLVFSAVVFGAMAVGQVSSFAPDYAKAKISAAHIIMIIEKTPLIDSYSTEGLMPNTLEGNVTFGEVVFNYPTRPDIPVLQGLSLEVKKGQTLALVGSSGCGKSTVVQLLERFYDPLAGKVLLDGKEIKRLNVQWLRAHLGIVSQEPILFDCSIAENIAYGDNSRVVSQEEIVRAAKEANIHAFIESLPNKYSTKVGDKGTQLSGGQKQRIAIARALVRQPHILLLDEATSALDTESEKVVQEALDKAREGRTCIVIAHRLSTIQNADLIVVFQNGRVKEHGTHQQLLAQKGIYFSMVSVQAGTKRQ

[2] = test system: panel of mammalian cell lines; assay: Activity against a panel of mammalian cell lines; format: cell-based
M. tuberculosis H37Rv [3] = assay: Chronic lung infection model in mice; format: in vivo, C57BL/6 mice
Procedure: (§1) The efficacy of GSK3036656 was assessed in C57BL/6 mice having acute and chronic lung infections by M. tuberculosis H37Rv, which mimic infections by actively replicating and nonreplicating/slow-replicating mycobacteria, respectively ([13], [14]). In the acute model, 10 mice were administered different daily oral doses ranging from 0.1 to 100 mg/kg of body weight for 8 days starting 1 day after infection. A maximum difference of 3.6 log CFU was obtained in the lungs compared to untreated mice. […] In the chronic model, a total of 18 mice were administered doses ranging from 0.1 to 30 mg/kg from weeks 6 to 14 after infection. Maximum reduction (drop of 2.1 log10 CFU in the lungs) was achieved after 2 months of daily oral treatment and after fitting the data to a sigmoidal curve. The EDmax for GSK3036656 was estimated as 1.3 mg/kg ([…], 0.7 to 3.4 mg/kg). […] Some additional groups treated at 0.3 to 30 mg/kg were studied in the chronic model to obtain kinetic data (from 2 to 16 weeks of treatment).

[4] = Chronic lung infection model in mice; format: in vivo, C57BL/6 mice; conditions: C57BL/6, mouse, in vivo, 1.3 mg/kg, read-out: plasma steady-state AUC associated with EDmax (AUCEDmax), target exposure for efficacy in humans
Procedure: as §1

clinical [5] = conditions: human, in vivo, po, 5 mg, Ref
clinical [6] = conditions: human, in vivo, po
M. tuberculosis H37Rv [7] = assay: Acute lung infection model in mice; format: in vivo, C57BL/6 mice
Procedure: as §1

[8] = target: breast cancer resistance protein (Homo sapiens, UniProt Q9UNQ0); assay: BCRP substrate assessment; format: in vitro ADME; conditions: in vitro
Chain of breast cancer resistance protein (Q9UNQ0 whole entry): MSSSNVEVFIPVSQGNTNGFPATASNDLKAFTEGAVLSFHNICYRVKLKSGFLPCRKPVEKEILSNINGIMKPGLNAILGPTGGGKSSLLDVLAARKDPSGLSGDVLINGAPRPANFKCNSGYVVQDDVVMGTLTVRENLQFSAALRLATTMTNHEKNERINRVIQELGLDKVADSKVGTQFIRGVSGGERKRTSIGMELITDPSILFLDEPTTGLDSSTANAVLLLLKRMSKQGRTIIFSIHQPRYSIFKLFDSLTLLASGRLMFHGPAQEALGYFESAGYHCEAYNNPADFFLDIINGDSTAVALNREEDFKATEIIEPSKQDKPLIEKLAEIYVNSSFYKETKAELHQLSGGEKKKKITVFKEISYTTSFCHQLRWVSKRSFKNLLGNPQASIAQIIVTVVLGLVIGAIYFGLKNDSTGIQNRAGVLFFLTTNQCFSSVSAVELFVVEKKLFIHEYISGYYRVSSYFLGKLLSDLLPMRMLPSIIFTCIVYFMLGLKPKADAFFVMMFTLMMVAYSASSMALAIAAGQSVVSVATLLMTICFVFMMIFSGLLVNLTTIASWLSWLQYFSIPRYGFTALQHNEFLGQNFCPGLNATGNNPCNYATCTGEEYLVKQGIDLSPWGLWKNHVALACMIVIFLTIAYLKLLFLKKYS

[9] = format: in vitro ADME; conditions: not told
[10] = rat, in vivo

Q: Which AUC ([1]; plasma) does the source give for NC[C@H]1OB(O)c2c(OCCO)ccc(Cl)c21 [GSK3036656, (S)-3-(aminomethyl)-4-chloro-7-(2-hydroxyethoxy)benzo[c][1,2]oxaborol-1(3H)-ol] here?
A: 4900 ng·h/mL

Q: What about the Cmax ([1]; serum) of the same compound?
A: < 443 ng/mL

Q: And the P-gp substrate (P-glycoprotein (P-gp))?
A: not a P-glycoprotein (P-gp) substrate

Q: And the “activity against a panel of mammalian cell lines” value [2]?
A: inactivity

Q: What about the “maximum reduction (drop of CFU in the lungs)” value (M. tuberculosis H37Rv [3]; 2 months of daily oral treatment) of the same compound?
A: 2.1 log10 CFU

Q: And the EDmax (M. tuberculosis H37Rv [3]; sigmoidal fit)?
A: 1.3 mg/kg

Q: And the AUC [4]?
A: 1740 ng·h/mL

Q: What about the AUC(0-t) (clinical [5]; AUC0–t, geometric LS mean) of the same compound?
A: 732 ng·h/mL

Q: And the AUC(0-inf) (clinical [5]; AUC0–∞, geometric LS mean)?
A: 1430 ng·h/mL

Q: And the Cmax (clinical [5]; Cmax, geometric LS mean)?
A: 48.4 ng/mL

Q: And the Tmax (clinical [5]; Tmax)?
A: 1.25 h

Q: What about the AUC(0-inf) (clinical [6]; both, 5 mg) of the same compound?
A: 1400 ng·h/mL

Q: And the AUC(0-t) (clinical [6]; both, 5 mg)?
A: 771 ng·h/mL

Q: And the Cmax (clinical [6]; both, 5 mg)?
A: 49.1 ng/mL

Q: And the Tmax (clinical [6]; both, 5 mg)?
A: 1.1 h

Q: And the AUC(0-inf) (clinical [6]; both, 15 mg)?
A: 3800 ng·h/mL

Q: What about the AUC(0-t) (clinical [6]; both, 15 mg) of the same compound?
A: 3250 ng·h/mL

Q: What about the Cmax (clinical [6]; both, 15 mg) of the same compound?
A: 178 ng/mL

Q: What about the AUC(0-inf) (clinical [6]; 25 mg) of the same compound?
A: 6560 ng·h/mL

Q: And the AUC(0-t) (clinical [6]; 25 mg)?
A: 5690 ng·h/mL

Q: And the Cmax (clinical [6]; 25 mg)?
A: 207 ng/mL

Q: And the Tmax (clinical [6]; 25 mg)?
A: 1.1 h

Q: And the “maximum difference in the lungs compared to untreated mice” value (M. tuberculosis H37Rv [7]; daily oral doses 0.1 to 100 mg/kg for 8 days)?
A: 3.6 log CFU

Q: What about the “EDmax (effective dose giving 90% of the total effect)” value (M. tuberculosis H37Rv [7]; sigmoidal fit) of the same compound?
A: 1.1 mg/kg

Q: What about the “substrate specificity for breast cancer resistance protein” value [8] of the same compound?
A: lack of substrate specificity

Q: And the passive permeability [9]?
A: moderate

Q: And the oral bioavailability [10]?
A: very high
